Patent publication US20250241925A1, “METHODS OF P21 SUPPRESSION FOR BONE REGENERATION AND HEALING” (UWM Research Foundation, Inc., priority 2022, published 2025)

Assays:
Sp7 (Osterix) = assay: Gene expression analysis (qPCR, ΔΔCt) in HuMSCs: Sp7; assay type: cell-based, human; settings: 7 days
Method: (§1) Human umbilical cord derived mesenchymal stem cells (HuMSCs) were plated in a 24 well plate at a density of 30,000 cells per well. Samples were divided as controls—no drug, no differentiation media; osteogenic control—no drug, DMEM media supplemented with factors to induce osteogenesis including dexamethasone, L-ascorbic acid, and beta-glycerol phosphate; 2.5, 5, and 10 μM wells consisted of DMEM media supplemented respective concentrations of UC2288. Media was renewed in all wells every other day. After 7 days, all samples were processed to extract total RNA. Next, cDNA was produced and qPCR was performed for gene expression analyses. Three genes of interest were analyzed-RunX2, Sp7 (Osterix), and CDKN1A (p21). RunX2 and Sp7 are genes responsible for osteoblast differentiation and take part in osteogenesis. To analyze the data, the ΔΔCt method was employed against an 18s endogenous control and DMEM media without differentiation factors or drugs as reference controls. The ΔΔCt can be described as:
(§2) Relative mRNA expression of sample=2^−ΔΔCt of sample,
(§3) where ΔΔCt of sample=(Ct of sample−Ct of 18s of sample)−(Ct of reference control−Ct of 18s of reference control).

CDKN1A (p21) = assay: Gene expression analysis (qPCR, ΔΔCt) in HuMSCs: p21; assay type: cell-based, human; settings: 7 days
Method: as §1, §2, §3

fractured tibiae = assay: MicroCT imaging of fracture healing in mice after post-fracture UC2288 injection (Example 4); assay type: in vivo; settings: five 0.1 mL 10 μM injections at days 3, 5, 7, 10, 14; 21 days post-injury
Method: Male wildtype mice (n=10) aged between 8-10 weeks were selected for this study. Future experiments will also include aged mice (e.g., ˜18 months of age). […] The mice had their tibiae fractured at the beginning of the study. Five mice were considered controls and received five injections of saline solution at days 3, 5, 7, 10, and 14 post-injury. The other five mice were injected five times with 0.1 mL 10 μM of UC2288 solution at days 3, 5, 7, 10, and 14 post-injury. At 21 days post-injury, mice were sacrificed, and their tibiae were excised. These bones were imaged using a microCT system that can differentiate between bone and soft tissue.

RunX2 = assay: Gene expression analysis (qPCR, ΔΔCt) in HuMSCs: RunX2; assay type: cell-based, human; settings: 7 days
Method: as §1, §2, §3

MSCs [1] = assay: Osteogenic differentiation of MSCs, Alizarin Red S staining of calcium deposits; assay type: cell-based, mouse (C57BL/6)
Method: In order to test whether UC2288 can improve osteogenic capacity of MSCs, the purified MSCs were differentiated into osteoblasts after interaction with UC2288. For osteogenic differentiation experiment, 84,000 cells were added into wells of a 24-well plate (Corning Inc., NY). Each concentration of UC2288, i.e., 2.5 μM, 5 μM, and 10 μM were tested in triplicates along with their controls which had no drugs but simply DMEM media and incubated for a period of 24- and 48-hours. After the designated time periods, the drug solutions were aspirated out of each well. To test for osteogenesis at different concentrations, relevant media were added to cells and renewed every other day for up to 21 days.
The osteogenic media consisted of 1 nM of dexamethasone, 50 μg/mL of L-Ascorbic acid, and 10 mM of β-glycerophosphate (Sigma-Aldrich, MO) in 50 mL DMEM.
After 21 days of culture, cells were stained following the appropriate staining protocol. […]
This experiment tested the ability of cells that interacted with the UC2288 drug to generate bone-forming osteoblast cells. […] After staining each well by following an osteogenic staining protocol, the area of the stains was analyzed using ImageJ and the data were graphed in GraphPad Prism. […]

[2] = system: transverse tibial fracture; assay: Microtomography imaging of transverse tibial fracture callus (Example 6); assay type: in vivo, C57BI/6 wildtype mice; settings: 10 μM, 0.1 mL at days 3, 5, 7, 10, 14; 4 weeks post-fracture
Method: All protocols were approved by IACUC at UWM. C57BI/6 wildtype mice at 8 weeks of age were administered a transverse tibial fracture. The mice were injected with 10 μM of UC2288 solution at a volume of 0.1 mL at days 3, 5, 7, 10, and 14. The mice were sacrificed 4 weeks post-fracture and their tibiae were excised. The bone samples were placed in 10% formalin for two days followed by placement in 70% ethanol until they were ready for microCT imaging. Each sample was placed on a holder and few drops of phosphate buffered saline were placed along with the sample. The sample was scanned using a microCt (Zeiss Xradia Versa X-ray microscope) scanner at a 15 μm thickness per slice. The data was contoured using MIMICS (Materialise NV) followed by data analysis via Python. […] See FIG. 7A-B. The black and white images show where bone was automatically thresholded via ImageJ.

MSCs [3] = assay: Cytotoxicity (MTT assay) of UC2288 in purified MSCs; assay type: cell-based, mouse (C57BL/6)
Method: All procedures with animals were approved by the IACUC at the University of Wisconsin-Milwaukee. The mice used for this study were C57BL/6 (Charles River, MA). Fifteen 8-week-old male mice were euthanized by CO2 inhalation. After checking for a heartbeat, a cervical dislocation was performed followed by checking for any signs of breathing again for precautionary measures. After confirming that there were no signs of breathing, the tibia and the femur were extracted and placed in phosphate buffered saline (PBS) (Corning Inc., NY). A bone marrow flush with a 23-gauge, 0.5-inch needle (Becton Dickinson, NJ) was performed in a biosafety hood and the pelleted bone marrow cell suspension was plated in a 60×15 mm Primaria cell culture dish (Corning Inc., NY) in MesenCult Basal Medium (Mouse) that contained 50 mL MesenCult 10× Supplement (Mouse) and 0.5 mL MesenPure 1000× (STEMCELL Technologies, Vancouver, Canada). The plates were incubated at 37° C. in a 5% CO2 humidified atmosphere. After 24 hours, half the medium volume was removed, and fresh medium was added. The media in the cultures were renewed every other day. As the cells reached confluency, they were detached by treatment with 0.5% Trypsin-EDTA (Thermo Fisher Scientific, MA) and replated into a 100×20 mm Primaria cell culture dish (Corning Inc.) and eventually into a T-25-cm^2 Primaria flask (Corning Inc, NY). […]

O=C(Nc1ccc(Cl)c(C(F)(F)F)c1)N[C@H]1CC[C@H](Oc2ccc(C(F)(F)F)cn2)CC1 [UC2288, 1-(4-chloro-3-(trifluoromethyl)phenyl)-3-((1r,4r)-4-((5-(trifluoromethyl)pyridin-2-yl)oxy)cyclohexyl)urea]
Sp7 expression compared to the osteogenic positive control (Sp7 (Osterix); 5 μM): increased osteogenic potential | Sp7 expression compared to the osteogenic positive control (Sp7 (Osterix); 10 μM): increased osteogenic potential | Sp7 expression compared to the control (Sp7 (Osterix); all concentrations (2.5, 5, 10 μM)): increased osteogenic gene expression | expression of p21 in HuMSCs (CDKN1A (p21); 2.5 μM): reduced p21 expression | expression of p21 in HuMSCs (CDKN1A (p21); 5 μM): reduced p21 expression | expression of p21 in HuMSCs (CDKN1A (p21); 10 μM): increased expression | bone formation/healing versus saline control mice (microCT) (fractured tibiae): more bone formation/healing | effect on osteogenic markers compared to 2.5 and 10 μM (RunX2; 5 μM): most significant effect | RunX2 expression compared to controls (RunX2; 2.5, 5, 10 μM): increased osteogenic potential | RunX2 expression compared to the osteogenic control (RunX2; 2.5, 5, 10 μM): less than the osteogenic control | area of osteogenic stained cells, comparison of 2.5, 5 and 10 μM (MSCs [1]; 5 μM UC2288 at 24 hr): most osteogenic stained cells | staining for calcium deposits in osteoblasts from MSCs versus DMEM control (MSCs [1]; 10 μM UC2288 for 24 hr, 21 days osteogenic culture): Greater staining | callus Surface Area (microCT) [2]: 0.1147 mm^2 | callus Surface Area Pixels (microCT) [2]: 7611878.877 Pixels | callus Volume (microCT) [2]: 0.4206 mm^3 | callus Volume Pixels (microCT) [2]: 27919486 Pixels | proliferation of the MSCs (MTT, absorbance 540 nm) versus positive control DMEM media (MSCs [3]; 2.5, 5 and 10 μM UC2288, 24 hours): No significant difference | proliferation of the MSCs (MTT, absorbance 540 nm) versus positive control DMEM media (MSCs [3]; 2.5, 5 and 10 μM UC2288, 48 hours): No significant difference
